target: T1, AR (Homo sapiens, UniProt P10275, T878A); assay: Effects of compounds on AR expression in LNCaP cells (ELISA, DC50); type: cell-based; set-up: Measurement of the Effects of Drugs on the Expression of AR in Cells by ELISA Method; endogenous in cells; host or cells: LNCaP; settings: 24 hours of drug treatment, AR by ELISA
T1 sequence (P10275 1-920 T878A): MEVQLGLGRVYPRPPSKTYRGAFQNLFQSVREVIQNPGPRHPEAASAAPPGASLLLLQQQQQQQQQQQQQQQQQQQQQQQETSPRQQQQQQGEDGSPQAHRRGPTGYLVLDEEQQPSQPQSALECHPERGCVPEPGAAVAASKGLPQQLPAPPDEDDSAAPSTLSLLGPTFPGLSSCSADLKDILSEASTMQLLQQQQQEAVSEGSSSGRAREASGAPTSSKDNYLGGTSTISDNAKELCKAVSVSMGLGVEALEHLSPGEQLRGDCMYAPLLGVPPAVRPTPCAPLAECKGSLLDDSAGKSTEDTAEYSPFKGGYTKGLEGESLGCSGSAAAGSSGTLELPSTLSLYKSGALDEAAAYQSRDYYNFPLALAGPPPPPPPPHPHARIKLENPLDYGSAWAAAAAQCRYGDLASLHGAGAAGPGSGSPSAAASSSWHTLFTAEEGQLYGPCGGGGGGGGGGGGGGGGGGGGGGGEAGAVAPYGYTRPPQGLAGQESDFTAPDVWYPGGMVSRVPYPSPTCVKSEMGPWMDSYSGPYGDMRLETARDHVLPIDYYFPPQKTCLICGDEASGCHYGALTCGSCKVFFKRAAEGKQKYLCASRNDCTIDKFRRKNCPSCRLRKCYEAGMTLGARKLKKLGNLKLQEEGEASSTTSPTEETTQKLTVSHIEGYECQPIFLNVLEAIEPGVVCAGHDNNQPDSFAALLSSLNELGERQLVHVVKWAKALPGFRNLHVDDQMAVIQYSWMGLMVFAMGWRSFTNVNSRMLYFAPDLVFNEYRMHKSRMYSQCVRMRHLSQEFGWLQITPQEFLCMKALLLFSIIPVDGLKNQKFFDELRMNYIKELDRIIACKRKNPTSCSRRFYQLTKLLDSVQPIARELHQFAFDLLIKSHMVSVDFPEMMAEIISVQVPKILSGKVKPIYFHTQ
Method: Activity Assay Example 1: Effects of Compounds on AR Expression in LNCaP Cells
1. Cell Line and Cell Culture
Human prostate cancer cells LNCaP (Shanghai Chinese Academy of Sciences Cell Bank). LNCaP was cultured in 1640 medium containing 10% fetal bovine serum. The cells grow in clusters, with weak adhesion to the bottom of the culture flask, slow proliferation, with a multiplication time of 72 h. The cells are closely adhered to each other and need to be digested with 0.05% trypsin containing 0.025% EDTA. The cells were passaged every 3 days. The cells were cultured at 37° C. and 5% CO2 in a humidified incubator
2. Cell plating: The supernatant was discarded, and the Lncap cells in the logarithmic growth phase were taken, washed with PBS once, and added with appropriate 0.05% trypsin digestion solution to be fully digested into single cell suspension, and centrifuged, resuspended and counted to make the number of cells about 15,000 per well, then inoculated in a 96-well plate, placed at 37° C., 5% CO2 and cultured overnight for 24 h.
3. Preparation and Addition of Compound Solutions
About 2 mg of each compound was weighed and dissolved in DMSO to make the stock solution with a concentration of 10 mmol/L. Dilution process (final concentration dilution: 2, 0.667, 0.222, 0.074, 0.0245, 0.008, 0.003, 0.001, 0.0003, 0.0001 μmol/L): 10 centrifuge tubes with a volume of 1.5 mL were taken and numbered 1, 2, 3, 4, 5, 6, 7, 8, 9, and 10, 80 μL DMSO was added to tube No. 1, and 60 μL DMSO was added to tubes No. 2 to No. 10, 20 μL of the stock solution was pipetted to tube No. 1 and mixed well; 30 μL was pipetted from tube No. 1 into tube No. 2 and mixed well. 30 μL was pipetted from tube No. 2 into tube No. 3 and mixed well, and so forth, to obtain samples No. 4-10, and to obtain working solutions of compounds of different concentrations respectively. 2 μL was pipetted from the above-mentioned tubes No. 1-10 into each corresponding sterile deep-well plates, added with 198 μL of culture medium, and mixed well. 11 ul was added to each well of the 96-well cell plate cultured overnight to obtain the corresponding desired concentrations (2, 0.667, 0.222, 0.074, 0.0245, 0.008, 0.003, 0.001, 0.0003, 0.0001 μmol/L).
4. Measurement of the Effects of Drugs on the Expression of AR in Cells by ELISA Method
After 24 hours of drug treatment, the supernatant was removed, and 200 μL of PBS was added to wash cells, and then the supernatant was removed, and 100 μL of cell lysate was added to lyse cells on ice for 20 min, then the cell lysate was centrifuged at 4000 rpm for 20 min at 4° C. and the supernatant was taken for later use. The measurement steps of the supernatant were according to the ELISA kit instructions:
4.1 The slats required for the test were taken out from the sealed bag that has been equilibrated to room temperature. Please put the unused slats and desiccant back into the aluminum foil bag and compress the self-sealing strip, seal the bag, and store at 4° C.
4.2 Standards and sample diluents were added to blank wells, and different concentrations of standards (10 ul/well) and sample diluents (90 ul/well) were added to the remaining corresponding wells, and the reaction wells were sealed with sealing tape, and refrigerated at 4° C. overnight.
4.3 Primary antibody was diluted with dilution buffer to the corresponding concentration and added to each well in 100 ul/well. The reaction wells were sealed with sealing tape and incubated at 37° C. for 60 min.
4.4 Secondary antibody was diluted with dilution buffer to the corresponding concentration and added to each well in 100 ul/well. The reaction wells were sealed with sealing tape and incubated at 37° C. for 30 min.
4.5 The reaction wells were added with 100 ul/well of substrate (TMB) and incubated at room temperature for 30 min.
4.6 The reaction wells were added with 100 ul/well of stop solution, mixed well and then the OD450 value was measured with a microplate reader. […]

`Cc1ncsc1-c1ccc(CNC(=O)[C@@H]2C[C@@H](O)CN2C(=O)[C@@H](NC(=O)CCN2CCC(Oc3ccc(-c4ccc(N5C(=S)N(c6ccc(C#N)c(C(F)(F)F)c6F)C(=O)C5(C)C)cn4)cc3)CC2)C(C)(C)C)cc1` [Compound A65] and `Cc1ncsc1-c1ccc(CNC(=O)[C@@H]2C[C@@H](O)CN2C(=O)[C@@H](NC(=O)CN2CCN(CCc3ccc(-c4ccc(N5C(=S)N(c6ccc(C#N)c(C(F)(F)F)c6F)C(=O)C5(C)C)cn4)cc3)CC2)C(C)(C)C)cc1` [Compound A69] are within 1.5-fold of each other in DC50: 32.4 nM for the first, 39.4 nM for the second.

First: Cc1ncsc1-c1ccc(CNC(=O)[C@@H]2C[C@@H](O)CN2C(=O)[C@@H](NC(=O)COCCCC(=O)N(Cc2ccccc2)c2ccc(-c3ccc(N4C(=S)N(c5ccc(C#N)c(C(F)(F)F)c5F)C(=O)C4(C)C)cn3)cc2)C(C)(C)C)cc1 [Compound A67]
Second: Cc1ncsc1-c1ccc(CNC(=O)[C@@H]2C[C@@H](O)CN2C(=O)[C@@H](NC(=O)COCCCCNc2ccc(-c3ccc(N4C(=S)N(c5ccc(C#N)c(C(F)(F)F)c5F)C(=O)C4(C)C)cn3)cc2)C(C)(C)C)cc1 [Compound A68]
The DC50 of the first is lower: 248 nM for the first, over 2000 nM for the second.

`Cc1ncsc1-c1ccc(CNC(=O)[C@@H]2C[C@@H](O)CN2C(=O)[C@@H](NC(=O)COCCCCOc2ccc(-c3ncc(N4C(=S)N(c5ccc(C#N)c(C(F)(F)F)c5F)C(=O)C4(C)C)cc3C(F)(F)F)cc2C#N)C(C)(C)C)cc1` [Compound A75] and `Cc1ncsc1-c1ccc(CNC(=O)[C@@H]2C[C@@H](O)CN2C(=O)[C@@H](NC(=O)COCCOc2ccc(-c3ncc(N4C(=S)N(c5ccc(C#N)c(C(F)(F)F)c5F)C(=O)C4(C)C)cc3C(F)(F)F)cc2)C(C)(C)C)cc1` [Compound A92] are within 1.5-fold of each other in DC50: 89.4 nM for the first, 99.6 nM for the second.

Compared with `Cc1ncsc1-c1ccc(CNC(=O)[C@@H]2C[C@@H](O)CN2C(=O)[C@@H](NC(=O)COCCOCCOc2ccc(-c3ccc(N4C(=S)N(c5ccc(C#N)c(C(F)(F)F)c5F)C(=O)C4(C)C)cn3)cc2)C(C)(C)C)cc1` [Compound A76], `Cc1ncsc1-c1ccc(CNC(=O)[C@@H]2C[C@@H](O)CN2C(=O)[C@@H](NC(=O)COCCCCn2cc(-c3ccc(N4C(=S)N(c5ccc(C#N)c(C(F)(F)F)c5F)C(=O)C4(C)C)cn3)ccc2=O)C(C)(C)C)cc1` [Compound A98] is 7-fold higher in DC50: 40 nM for the first, 281 nM for the second.

First: Cc1ncsc1-c1ccc(CNC(=O)[C@@H]2C[C@@H](O)CN2C(=O)[C@@H](NC(=O)CCn2cc(COc3ccc(-c4ccc(N5C(=S)N(c6ccc(C#N)c(C(F)(F)F)c6F)C(=O)C5(C)C)cn4)cc3)nn2)C(C)(C)C)cc1 [Compound A80]
Second: Cc1ncsc1-c1ccc(CNC(=O)[C@@H]2C[C@@H](O)CN2C(=O)[C@@H](NC(=O)CCCn2cc(COc3ccc(-c4ccc(N5C(=S)N(c6ccc(C#N)c(C(F)(F)F)c6F)C(=O)C5(C)C)cn4)cc3)nn2)C(C)(C)C)cc1 [Compound A81]
The DC50 of the first is 1.8-fold higher: 116 nM for the first, 63.3 nM for the second.

Compared with `Cc1ncsc1-c1ccc(CNC(=O)[C@@H]2C[C@@H](O)CN2C(=O)[C@@H](NC(=O)CN2CCN(Cc3ccc(-c4ccc(N5C(=S)N(c6ccc(C#N)c(C(F)(F)F)c6F)C(=O)C5(C)C)cn4)cc3)CC2)C(C)(C)C)cc1` [Compound A86], `Cc1ncsc1-c1ccc(CNC(=O)[C@@H]2C[C@@H](O)CN2C(=O)[C@@H](NC(=O)COCCCCN2CCN(c3ccc(N4C(=S)N(c5ccc(C#N)c(C(F)(F)F)c5F)C(=O)C4(C)C)cn3)CC2)C(C)(C)C)cc1` [Compound A106] is 5.8-fold higher in DC50: 69.3 nM for the first, 402 nM for the second.

Going from `Cc1ncsc1-c1ccc(CNC(=O)[C@@H]2C[C@@H](O)CN2C(=O)[C@@H](NC(=O)COCCOc2c(F)cc(-c3ncc(N4C(=S)N(c5ccc(C#N)c(C(F)(F)F)c5F)C(=O)C4(C)C)cc3F)cc2F)C(C)(C)C)cc1` [Compound A87] to `Cc1ncsc1-c1ccc(CNC(=O)[C@@H]2C[C@@H](O)CN2C(=O)[C@@H](OC(=O)COCCCCOc2ccc(-c3ncc(N4C(=S)N(c5ccc(C#N)c(C(F)(F)F)c5F)C(=O)C4(C)C)cc3F)cc2F)C(C)(C)C)cc1` [Compound A107], the DC50 rises from 54.6 nM to 107 nM (2-fold).

Compared with `Cc1ncsc1-c1ccc(CNC(=O)[C@@H]2C[C@@H](O)CN2C(=O)[C@@H](NC(=O)CCCn2cc(COc3ccc(-c4ncc(N5C(=S)N(c6ccc(C#N)c(C(F)(F)F)c6F)C(=O)C5(C)C)cc4F)cc3F)nn2)C(C)(C)C)cc1` [Compound A96], `Cc1ncsc1-c1ccc(CNC(=O)[C@@H]2C[C@@H](O)CN2C(=O)[C@@H](NC(=O)CCN2CCC(Oc3ccc(-c4ncc(N5C(=S)N(c6ccc(C#N)c(C(F)(F)F)c6F)C(=O)C5(C)C)cc4F)cc3F)CC2)C(C)(C)C)cc1` [Compound A104] is 4.4-fold higher in DC50: 54.9 nM for the first, 241 nM for the second.

Going from `Cc1ncsc1-c1ccc([C@H](C)NC(=O)[C@@H]2C[C@@H](O)CN2C(=O)[C@@H](NC(=O)COCCCCOc2ccc(-c3ccc(N4C(=S)N(c5ccc(C#N)c(C(F)(F)F)c5F)C(=O)C4(C)C)cn3)cc2C(F)(F)F)C(C)(C)C)cc1` [Compound A113] to `CC(C)(C)[C@H](NC(=O)COCCCCOc1ccc(-c2ncc(N3C(=S)N(c4ccc(C#N)c(C(F)(F)F)c4F)C(=O)C3(C)C)cc2F)cc1F)C(=O)N1C[C@H](O)C[C@H]1C(=O)NCc1ccc(C(N)=O)cc1` [Compound A119], the DC50 falls from 193 nM to 7.2 nM (27-fold).

Going from `CC(C)(C)[C@H](NC(=O)COCCCCOc1c(F)cc(-c2ncc(N3C(=S)N(c4ccc(C#N)c(C(F)(F)F)c4F)C(=O)C3(C)C)cc2C(F)(F)F)cc1F)C(=O)N1C[C@H](O)C[C@H]1C(=O)NCc1ccccc1` [Compound A114] to `CC(C)(C)[C@H](NC(=O)COCCCCOc1c(F)cc(-c2ncc(N3C(=S)N(c4ccc(C#N)c(C(F)(F)F)c4F)C(=O)C3(C)C)cc2C(F)(F)F)cc1F)C(=O)N1C[C@H](O)C[C@H]1C(=O)NCc1ccc(C(N)=O)cc1` [Compound A116], the DC50 rises from 79.3 nM to 370 nM (4.7-fold).

First: CC(C)(C)[C@H](NC(=O)COCCCCCOc1ccc(-c2ncc(N3C(=S)N(c4ccc(C#N)c(C(F)(F)F)c4F)C(=O)C3(C)C)cc2F)cc1F)C(=O)N1C[C@H](O)C[C@H]1C(=O)NCc1ccc(C(N)=O)cc1 [Compound A117]
Second: CC(C)(C)[C@H](NC(=O)COCCCCCOc1ccc(-c2ncc(N3C(=S)N(c4ccc(C#N)c(C(F)(F)F)c4F)C(=O)C3(C)C)cc2F)cc1F)C(=O)N1C[C@H](O)C[C@H]1C(=O)NCc1ccccc1 [Compound A118]
The DC50 of the first is lower: 111 nM for the first, over 2000 nM for the second.
